As a reminder, the IC50 is the concentration at which inhibition is half-maximal. Low values mean higher potency, high ones lower potency.

In this experiment the target is full-length human PRMT8 isoform 1 (Homo sapiens, UniProt Q9NR22). In words: PRMT8 biochemical assay (3H-SAM Flashplate, histone H4 31-45 peptide). The conditions noted are these: 1.5 nM PRMT8, 30 min preincubation, 150 nM peptide. The source says: S-adenosylmethionine (SAM), S-adenosylhomocysteine (SAH), bicine, Tween20, dimethylsulfoxide (DMSO), bovine skin gelatin (BSG), isopropyl-β-D-thiogalactopyranoside (IPTG), and Tris(2-carboxyethyl)phosphine hydrochloride solution (TCEP) were purchased from Sigma-Aldrich at the highest level of purity possible. ^3H-SAM was purchase from American Radiolabeled Chemicals with a specific activity of 80 Ci/mmol. 384-well streptavidin Flashplates were purchased from PerkinElmer.
full-length human PRMT8 isoform 1, sequence (Q9NR22 whole entry, the tested form may be a part, canonical isoform): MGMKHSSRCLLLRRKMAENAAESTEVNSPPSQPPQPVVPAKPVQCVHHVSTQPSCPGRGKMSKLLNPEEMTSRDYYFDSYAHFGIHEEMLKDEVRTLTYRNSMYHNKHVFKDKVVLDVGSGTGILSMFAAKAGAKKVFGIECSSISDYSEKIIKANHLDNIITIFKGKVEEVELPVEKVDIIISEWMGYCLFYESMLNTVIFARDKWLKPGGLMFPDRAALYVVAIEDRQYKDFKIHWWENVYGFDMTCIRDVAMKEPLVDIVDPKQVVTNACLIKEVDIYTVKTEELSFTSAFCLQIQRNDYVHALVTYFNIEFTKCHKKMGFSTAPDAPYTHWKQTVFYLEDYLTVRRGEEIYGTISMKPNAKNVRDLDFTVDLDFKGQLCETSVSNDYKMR
Peptide representative of human histone H4 residues 31-45 was synthesized with an N-terminal linker-affinity tag motif and a C-terminal amide cap by 21st Century Biochemicals. The peptide was purified by high-performance liquid chromatography (HPLC) to greater than 95% purity and confirmed by liquid chromatography mass spectrometry (LC-MS). The sequence was Biot-Ahx-[…]-amide (SEQ ID NO.:8).
The resulting construct encodes an N-terminal GST tag and a thrombin cleavage sequence
E. coli (BL21(DE3) Gold, Stratagene) made competent by the CaCl2 method were transformed with the PRMT8 construct and ampicillin selection. Protein over-expression was accomplished by growing the PRMT8 expressing E. coli clone and inducing expression with 0.3 mM IPTG at 16° C. The culture was grown for 12 hours, harvested by centrifugation, and stored at −80° C. for purification.
GST-tagged PRMT8 was eluted with 50 mM Tris, 2 mM glutathione, pH 7.8. Pooled fractions were cleaved by thrombin (10U) and dialysed in buffer A. GST was removed by reloading the cleaved protein sample onto glutathione sepharose column and PRMT8 was collected in the flow-through fractions. PRMT8 was purified further by ceramic hydroxyapatite chromatography. The column was washed with 50 mM phosphate buffer, 100 mM NaCl, 5% glycerol, 5 mM […], pH 7.8 and PRMT8 was eluted by 100 mM phosphate in the same buffer. Protein was concentrated and buffer was exchanged to 50 mM Tris, 300 mM NaCl, 10% glycerol, 5 mM β-mercaptoethanol, pH 7.8 by ultrafiltration. The purity of recovered protein was 89%.
General Procedure for PRMT8 Enzyme Assays on Peptide Substrates.
The assays were all performed in a buffer consisting of 20 mM Bicine (pH=7.6), 1 mM TCEP, 0.005% BSG, and 0.002% Tween 20, prepared on the day of use. Compounds in 100% DMSO (1 ul) were spotted into a polypropylene 384-well V-bottom plates (Greiner) using a Platemate Plus outfitted with a 384-channel head (Thermo Scientific). DMSO (1 ul) was added to Columns 11, 12, 23, 24, rows A-H for the maximum signal control and 1 ul of SAH, a known product and inhibitor of PRMT8, was added to columns 11, 12, 23, 24, rows I-P for the minimum signal control. A cocktail (40 ul) containing the PRMT8 enzyme was added by Multidrop Combi (Thermo-Fisher). The compounds were allowed to incubate with PRMT8 for 30 min at room temperature, then a cocktail (10 ul) containing ^3H-SAM and peptide was added to initiate the reaction (final volume=51 ul). The final concentrations of the components were as follows: PRMT8 was 1.5 nM, ^3H-SAM was 50 nM, non-radiolabeled SAM was 550 nM, peptide was 150 nM, SAH in the minimum signal control wells was 1 mM, and the DMSO concentration was 2%. The assays were stopped by the addition of non-radiolabeled SAM (10 ul) to a final concentration of 400 uM, which dilutes the ^3H-SAM to a level where its incorporation into the peptide substrate is no longer detectable. 50 ul of the reaction in the 384-well polypropylene plate was then transferred to a 384-well Flashplate and the biotinylated peptides were allowed to bind to the streptavidin surface for at least 1 hour before being washed once with 0.1% Tween20 in a Biotek ELx405 plate washer. The plates were then read in a PerkinElmer TopCount plate reader to measure the quantity of ^3H-labeled peptide bound to the Flashplate surface, measured as disintegrations per minute (dpm) or alternatively, referred to as counts per minute (cpm). […]
Compound `CNCCN(C)Cc1c[nH]nc1[C@H]1CC[C@@]2(CCN(CCC(C)C)C2=O)CC1` [compound 11, (5r,8r)-2-isopentyl-8-(4-((methyl(2-(methylamino)ethyl)amino)methyl)-1H-pyrazol-3-yl)-2-azaspiro[4.5]decan-1-one] had an IC50 of 10.2 nM. As for `CNCCN(C)Cc1c[nH]nc1C1CCC(C)(C)[C@H](OCC(C)C)C1` (stereo partly drawn) [compound 20, ({3-[(3R)-4,4-dimethyl-3-(2-methylpropoxy)cyclohexyl]-1H-pyrazol-4-yl}methyl)(methyl)[2-(methylamino)ethyl]amine], the figure is 24.5 nM; as for `CNCCN(C)Cc1sc(C)nc1[C@H]1CC[C@@]2(CC1)CC(C)(C)CO2` [compound 78], 33.8 nM. On to `CNCCN(C)Cc1n[nH]cc1[C@H]1CC[C@@]2(CC1)CC(C)(C)CO2` [compound 115], for which the midpoint of inhibition, the IC50, lay at 16.2 nM. This IC50 is about 2.1-fold lower than that of the compound before. `CNCCN(C)Cc1c[nH]nc1C1CCC(COCC(C)C)(COCC(C)C)CC1` [compound 6] returned a 50% inhibitory concentration (IC50) of 62.4 nM.

Source of the values: patent US20170291905A1, “ARGININE […] INHIBITORS AND USES THEREOF” (Epizyme, Inc., priority 2014, published 2017).
